The values below are quoted from earlier work in patent US10332616B2, “Movable type method applied to protein-ligand binding” (University of Florida Research Foundation, Inc., priority 2013, dated 2019).

Read-outs that look alike come from different tables or passages of the source.

Where [1] appears, read: experimental solvation free energy, test set with 372 neutral compounds.
[2] abbreviates: experimental solvation free energy, neutral compounds test set.
Where [3] appears, read: aqueous solvation free energy, charged compounds (ions).

Consider `CCC(C)Cl` (stereo not drawn) [Compound 0409clb], for which the “Exp. ΔGsolv” value under setting [1] was 0.07 kcal/mol. `CCCCCCl` [Compound 0410clp]: the “Exp. ΔGsolv” value under setting [1] is on record as 0.07 kcal/mol. For `CCCC(C)Cl` (stereo not drawn) [Compound 0411chp], the “Exp. ΔGsolv” value under setting [1] is on record as 0.07 kcal/mol.

Consider `Cc1ccccc1Cl` [Compound 0413clt], for which the “Exp. ΔGsolv” value under setting [1] was -1.15 kcal/mol. `Clc1ccccc1-c1ccccc1Cl` [Compound 0414dcl]: under setting [1], the “Exp. ΔGsolv” value is -2.73 kcal/mol. In the case of `Clc1cccc(-c2ccccc2)c1Cl` [Compound 0415dcl], under setting [1], the “Exp. ΔGsolv” value is -2.45 kcal/mol. Turning to `Clc1ccccc1-c1cccc(Cl)c1Cl` [Compound 0416dcl], the “Exp. ΔGsolv” value under setting [1] is -1.99 kcal/mol.

On to `C=CCBr` [Compound 0417brp], for which the “Exp. ΔGsolv” value under setting [1] was -0.86 kcal/mol. `CC(C)CBr` [Compound 0418bri]: under setting [1], the “Exp. ΔGsolv” value is -0.03 kcal/mol. On to `Cc1ccc(Br)cc1` [Compound 0420pbr], for which, under setting [1], the “Exp. ΔGsolv” value is -1.39 kcal/mol. On to `FC(F)(Cl)Cl` [Compound 0421dfl], for which the “Exp. ΔGsolv” value under setting [1] is 1.69 kcal/mol. For the compound `FC(Cl)(Cl)Cl` [Compound 0422ftc], the “Exp. ΔGsolv” value under setting [1] is listed as 0.82 kcal/mol. On to `ClC(Cl)(Cl)Br` [Compound 0423brt], for which the “Exp. ΔGsolv” value under setting [1] is -0.93 kcal/mol.

On to `FC(F)(F)C(F)(F)Cl` [Compound 0424clp], for which, under setting [1], the “Exp. ΔGsolv” value is listed as 2.86 kcal/mol. For the compound `N#Cc1cc(Br)c(O)c(Br)c1` [Compound 0425dbr], the “Exp. ΔGsolv” value under setting [2] is -9 kcal/mol. `N#Cc1c(Cl)cccc1Cl` [Compound 0426dcl]: the “Exp. ΔGsolv” value under setting [2] was -5.22 kcal/mol.

Regarding `NC(=S)c1c(Cl)cccc1Cl` [Compound 0427dcl], the “Exp. ΔGsolv” value under setting [1] was -10.81 kcal/mol. For the compound `Nc1c(Cl)c(Cl)nc(C(=O)O)c1Cl` [Compound 0428ami], under setting [2], the “Exp. ΔGsolv” value is -11.96 kcal/mol. Turning to `COP(=O)(OC)OC=C(Cl)Cl` [Compound 0433pho], the “Exp. ΔGsolv” value under setting [1] is -6.61 kcal/mol. For `CCOP(=S)(OCC)Oc1ccc(Cl)cc1Cl` [Compound 0438pho], the “Exp. ΔGsolv” value under setting [2] was -3.86 kcal/mol.

As to `COP(=S)(OC)Oc1ccc([N+](=O)[O-])cc1` [Compound 0441pho], the “Exp. ΔGsolv” value under setting [2] was -7.62 kcal/mol.

For `CCCSP(=O)(OCC)Oc1ccc(Br)cc1Cl` (stereo not drawn) [Compound 0442pho], the “Exp. ΔGsolv” value under setting [2] was -4.09 kcal/mol. In the case of `COP(=S)(OC)Oc1cc(Cl)c(Cl)cc1Cl` [Compound 0444pho], the “Exp. ΔGsolv” value under setting [1] was -5.06 kcal/mol.

Consider `COP(=S)(OC)Oc1cc(Cl)c(Br)cc1Cl` [Compound 0445pho], for which, under setting [1], the “Exp. ΔGsolv” value was -5.7 kcal/mol. Consider `C[N+](=O)[O-]` [Compound 0506nit], for which, under setting [1], the “Exp. ΔGsolv” value was -3.95 kcal/mol.

Turning to `CCOOCC` [ethylperoxide, reference compound], for the setting “neutral molecule”, the ΔGsol experimental value was -5.32 kcal/mol.

For `CN` [i003, methylamine, reference compound], under setting [3], the “Exp. ΔGsolv” value is -76.40 kcal/mol. As to `CCCN` [i004, n-propylamine, reference compound], the “Exp. ΔGsolv” value under setting [3] is -71.50 kcal/mol.

For the compound `C=CCN` [i008, allylamine, reference compound], the “Exp. ΔGsolv” value under setting [3] is -72.00 kcal/mol.

On to `Cc1cccc(N)c1` [i020, 3-methylaniline, reference compound], for which, under setting [3], the “Exp. ΔGsolv” value was -69.60 kcal/mol. As to `Cc1ccc(N)cc1` [i021, 4-methylaniline, reference compound], the “Exp. ΔGsolv” value under setting [3] is -69.80 kcal/mol. Take `Nc1cccc(N)c1` [i023, 3-aminoaniline, reference compound]: the “Exp. ΔGsolv” value under setting [3] was -65.80 kcal/mol.

For `N` [i047, ammonia, reference compound], under setting [3], the “Exp. ΔGsolv” value is -85.20 kcal/mol. Regarding `CC(=O)O` [i059, aceticacid, reference compound], the “Exp. ΔGsolv” value under setting [3] is -77.60 kcal/mol. As for `CCC(=O)O` [i060, propanoicacid, reference compound], the “Exp. ΔGsolv” value under setting [3] was -76.20 kcal/mol.

As to `CCCCCC(=O)O` [i061, hexanoicacid, reference compound], under setting [3], the “Exp. ΔGsolv” value is -74.60 kcal/mol.
